The METLIN SMRT retention time set (Domingo-Almenara et al. 2019)

Assay: gradient 5% acetonitrile 3 min, to 50% in 2 min, to 85% in 15 min, held 3 min, 100 µL/min
Conditions: column: Zorbax Extend-C18 2.1 x 50 mm; eluents: water / acetonitrile, 0.1% formic acid
Summary of the method: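 Retention times come from adduct peaks that were picked computationally and then checked by hand. The standards, pure and pooled in mixtures of ~100 molecules, were run on a Zorbax Extend-C18 column (2.1 × 50 mm, 1.8 μm) at 100 μL/min with water and acetonitrile, each with 0.1% formic acid. Detection was by quadrupole time-of-flight mass spectrometry in positive and negative ionization mode, with a dead volume of 40 μL and a dwell volume of 900 μL.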

Row | RP-LC retention time [s] | Compound
1 | 724 | COCCCNC(=O)c1cc(-c2ccc(OC)c(OC)c2)nc2n[nH]c(-c3ccc(OC)cc3)c12
2 | 825 | Cc1noc(C)c1Cc1ccc(C(=O)N2CCCC2c2nc(CCOCC3CC3)no2)o1 (stereo unspecified)
3 | 860 | Cc1cc(C)cc(C(=O)N2CCC(C(=O)NCc3csc(-c4cccs4)n3)CC2)c1
4 | 874 | O=C(COc1ccc(F)cc1)N1CCN(c2ccc(=O)n(-c3ccc(Cl)cc3)n2)CC1
5 | 596 | Cc1nc2n(c(=O)c1C)CCN2CC(=O)NCc1ccco1
6 | 621 | O=C(NCCCN1CCCCC1)c1cc(=O)n2c(nc3ccccc32)s1
7 | 1220 | CCN(C(=O)c1cccs1)c1nc(-c2ccccc2)cs1
8 | 814 | CCc1cc(C(=O)N2CCN(c3ccccc3)CC2)nc2ccnn12
9 | 868 | CN1C(=O)c2ccccc2Oc2ccc(C(=O)NCc3ccc(F)cc3)cc21
10 | 1030 | Cc1ccc(S(=O)(=O)c2cnc(N3CCN(C(=O)OC(C)(C)C)CC3)nc2N)cc1
11 | 739 | O=C(NCc1cscn1)C1CCN(S(=O)(=O)c2ccc(Cl)s2)CC1
12 | 672 | O=C(Cn1cnc2nc(N3CCCC(C(=O)NC4CC4)C3)sc2c1=O)Nc1ccc(F)cc1 (stereo unspecified)
13 | 1040 | O=C1N(c2cccc(F)c2)c2ncccc2S(=O)(=O)N1Cc1ccc(F)cc1
14 | 836 | CCC(NC(=O)c1ccc2c(c1)nc1n2CCN(Cc2ccccc2)C1=O)c1cccs1 (stereo unspecified)
15 | 1190 | Cn1c(=O)oc2cc(-c3noc(-c4cccc(Br)c4)n3)ccc21
16 | 864 | COc1ccc(F)cc1S(=O)(=O)N(C)CC1(C)CCOCC1
17 | 566 | CCC(=O)c1ccc(OCC(O)CN(CC)Cc2ccccc2)cc1 (stereo unspecified)
18 | 698 | CSc1ccc(C(C(C(=O)c2ccco2)N2CCOCC2)N2CCOCC2)cc1 (stereo unspecified)
19 | 1230 | CCOc1ccccc1C(=O)Nc1ccc(Cl)c(C(F)(F)F)c1
20 | 571 | CCN(CC)CCNC(=O)C1(O)c2ccccc2NC(=O)N1c1ccc(C)c(C)c1 (stereo unspecified)
21 | 661 | COc1ccc(NC(=O)Cn2c(N3CCCCC3)nc(C)cc2=O)cc1
22 | 780 | O=C(NCCn1ncc2c(=O)n(Cc3cccc(Cl)c3)cnc21)c1cc2ccccc2o1

Row | RP-LC retention time [s] | Compound
23 | 664 | Cn1c(SCC(=O)N2CCCCC2)nnc1-c1ccc2c(c1)OCCCO2
24 | 672 | Cc1cc(C)c2c(CN3CCN(c4ccccn4)CC3)cc(=O)oc2c1
25 | 971 | CCCOc1ccc(-c2nc(N3CCCCCC3)c3ccccc3n2)cc1
26 | 982 | Cc1ccc(CNC(=O)Cn2c(C)cc(-c3nnc(-c4ccc(F)cc4)o3)c2C)cc1
27 | 814 | COc1ccc(NC(=O)C2c3ccccc3C(=O)N3CCc4cc(OC)c(OC)cc4C23)c(OC)c1 (stereo unspecified)
28 | 966 | Cc1cc(-c2nnc(-c3ccccc3)o2)c(C)n1CC(=O)NCc1ccccc1Cl
29 | 986 | COc1ccc(-c2nnc(SCC(=O)Nc3ccc(C)cc3Br)o2)cc1
30 | 777 | CCCCN(C)C(=O)c1sc(Nc2ccccn2)nc1C
31 | 755 | CCOc1ccc(CNC(=O)Cn2cnc3onc(C)c3c2=O)cc1
32 | 1180 | COc1ccc(C2Cn3nnc(-c4nc(-c5ccc(C)cc5)no4)c3CO2)cc1 (stereo unspecified)
33 | 847 | Cc1ccc(CCC(=O)Nc2cccc3ccccc23)o1
34 | 634 | CCNC(=O)c1n[nH]c2c1CN(C(=O)c1cc(F)cc(F)c1)CC2
35 | 861 | Cc1nc(Nc2ccc(F)cn2)sc1C(=O)NC(C)c1ccccc1 (stereo unspecified)
36 | 769 | O=C(NC1CCCC1)C1CC(=O)N(CCc2c[nH]c3ccc(Cl)cc23)C1 (stereo unspecified)
37 | 586 | CCn1c(CCNC(=O)c2cccc(N(C)C)c2)nc2cccnc21
38 | 586 | CCNc1cc(N2CCCC(CCC(=O)N3CCOCC3)C2)ncn1 (stereo unspecified)
39 | 790 | O=C(C1CCCCC1)N1CCN(c2ccc(=O)n(-c3ccccc3)n2)CC1
40 | 875 | Cc1noc(C)c1C1CCCN1C(=O)c1cnn2c(C(F)(F)F)cc(-c3ccco3)nc12 (stereo unspecified)
41 | 875 | CCOC(=O)c1ccccc1NC(=O)Cn1nc2cc(-c3ccccn3)nc(C)n2c1=O
42 | 622 | Cc1sc2cc(C(=O)O)[nH]c2c1C(=O)N1CCOCC1
43 | 690 | CC1(C)CCSC(/C=C/c2ccccc2)=N1

Second part, the compound before the results:

Row | Compound | RP-LC retention time [s]
44 | COCc1c(C(=O)O)nnn1-c1ccc(C)c(C)c1 | 757
45 | N#Cc1ccc(C(=O)N2CC(n3cc(COCC4CC4)nn3)C2)cc1 | 691
46 | CC1=C(c2ccc(Cl)cc2)S(=O)(=O)N=C1N1CCCN(C(=O)c2ccccc2)CC1 | 862
47 | CN(Cc1ccccc1)C(=O)CN1c2ccc(F)cc2-c2ccccc2S1(=O)=O | 994
48 | O=C(CSc1nnc(-c2cccnc2)o1)c1ccc(OC(F)F)cc1 | 780
49 | CC(=O)NNC(=O)N1Cc2ccccc2Oc2ccc(Cl)cc21 | 843
50 | COc1cccc(COc2cn(C)c(C(=O)N3CCN(c4ncccn4)CC3)cc2=O)c1 | 605
51 | COc1ccc(OC)c(C2NC(=O)NC(C)=C2C(=O)OCC(F)(F)C(F)(F)F)c1 (stereo unspecified) | 801
52 | Cc1ccccc1-n1c(SCc2nc(-c3ccccc3)no2)nc2cc3c(cc2c1=O)OCO3 | 1190
53 | O=C(Cc1csc2nc(-c3ccccc3)cn12)Nc1ccc(Cl)cc1 | 868
54 | Cc1ccc(NC(=O)C2CCCN(c3nc4ccsc4c(=O)n3Cc3ccc(F)cc3)C2)cc1 (stereo unspecified) | 1030
55 | CSc1cccc(NC(=O)N2CCC(C)(C(=O)NCc3ccc(F)cc3)CC2)c1 | 884
56 | CC(C)n1c(N2CCN(C(=O)CSc3ccccc3)CC2)cc(=O)n(C(C)C)c1=O | 902
57 | Cn1ccc2cc(CCC(=O)N3CCCC3)ccc21 | 789
58 | CCCC(NC(=O)Cc1cccs1)C(=O)Nc1nc2ccccc2[nH]1 (stereo unspecified) | 692
59 | COc1ccc(NC(=O)c2cn3c(n2)CSCC3)cc1Cl | 737
60 | COc1ccc(S(=O)(=O)Cc2nc(-c3cccc(Cl)c3)no2)cc1 | 1020
61 | CC1=C(c2ccc(C)cc2)S(=O)(=O)N=C1N1CCCN(C(=O)NC2CCCCC2)CC1 | 890
62 | O=C(NCCc1csc(C2CCCN(C(=O)C3CC3)C2)n1)C1CCC1 (stereo unspecified) | 682
63 | COc1cccc(N2CCN(C(=O)C3CCN(c4nccnc4Sc4ccccc4)CC3)CC2)c1 | 1070
64 | COc1ccccc1-c1nc2nccc(-c3ccco3)n2n1 | 836
65 | COCCNS(=O)(=O)c1ccc(-c2ccc(C)cc2)cc1 | 890
66 | ONC(=NCc1ccccc1)c1ccccc1 | 690
67 | CCc1cc(C(=O)Nc2ccc(F)cc2)nc2ccnn12 | 997

Row | Compound | RP-LC retention time [s]
68 | N#Cc1ccc(N2C=C(C(=O)N3CCOCC3)S(=O)(=O)c3ccc(Cl)cc32)cc1 | 764
69 | Cc1ccc(C2=NC3(CCN(C(=O)c4ccoc4)CC3)ON2)cc1 | 752
70 | COc1ccc(Cn2nccc2NC(=O)c2cc(=O)c3ccc(Br)cc3o2)cc1 | 870
71 | Cc1noc([C@@H]2CN(Cc3cccc(Cl)c3)C[C@H]2CO)n1 | 603
72 | CCc1noc(NC(C)=O)c1-c1ccc(C)c(S(=O)(=O)Nc2ccc(C)c(C)c2)c1 | 897
73 | CC1(C)CCC[C@]2(C)[C@H]3CC(=O)O[C@]3(C)CC[C@@H]12 | 1220
74 | Cc1cc(Cl)ccc1NC(=O)c1cc(C2CC2)on1 | 1040
75 | CCCN(CCC)S(=O)(=O)c1ccc(C)cc1 | 1200
76 | Cc1ccc(CNC(=O)c2cn3ccc(C)cc3n2)cc1 | 670
77 | O=C(CSc1nnc2c3cc(-c4ccc(F)cc4)nn3ccn12)Nc1ccc(F)cc1Cl | 940
78 | CN(C)C(=O)c1cc2c(s1)CCC(C(=O)N1CCN(Cc3ccccc3)CC1)C2 (stereo unspecified) | 556
79 | CCOc1ccccc1NC(=O)Cn1nc2cc(C)nc(-c3ccccc3)n2c1=O | 838
80 | CCOC(=O)c1cnc2c(-c3ccc(Br)cc3)c(C)nn2c1N | 1230
81 | COc1ccccc1C1(CNC(=O)C(=O)NCCC2=CCCCC2)CCOCC1 | 998
82 | CNc1ncn(-c2c(C)cccc2C)c(=O)n1 | 684
83 | O=C(O)c1cc(N2CCN(CC(=O)N3CCCCCC3)CC2)ccc1NC(=O)C1CC1 | 615
84 | CCC(=O)NC1CCc2cccc(OC)c2C1 (stereo unspecified) | 821
85 | CCOC(=O)c1nc(N(CC)Cc2ccccc2)c2ccccc2n1 | 899
86 | O=C([C@@H]1C[C@H](F)CN1C(=O)c1ccoc1)N1CCCCC1 | 576
87 | Cn1nc(-c2cccc(NC(=O)c3cccs3)c2)ccc1=O | 678
88 | CN1C(=O)c2cc(C(=O)NCc3cccc(F)c3)nn2CC1(C)C(=O)NCc1ccc(F)cc1 (stereo unspecified) | 760
89 | Cn1nc(C2CCCN(C(=O)Nc3ccc4c(c3)OCCO4)C2)n(C2CCCC2)c1=O (stereo unspecified) | 718
90 | NC(=O)C1(N2CCCCC2)CCN(C(=O)c2c(-c3ccccc3)nnc3ccccc23)CC1 | 588
91 | CCc1onc(C)c1C1CCCN1C(=O)Nc1cccc(F)c1 (stereo unspecified) | 832
